In data set [1] the test system is Peritoneal macrophage. The experiment in a line: cells. The following applies: Mus musculus, Swiss, 120 h, read-out: pIC50 (converted).
Data set [2] can be described thus: in vitro. The note with it: mouse, plasma.

Each structure is given as a SMILES string. A value given as a limit tells only on which side of the number the result lay.

As to `COc1ccc(S(N)(=O)=O)cc1S(=O)(=O)N(Cc1ccccc1)Cc1ccccc1`, the IC50 in data set [1] was > 64.6 µM.
On the same count and under the same terms, under `CS(=O)(=O)c1ccccc1S(=O)(=O)N(Cc1ccccc1)Cc1ccccc1` stands > 64.6 µM; under `COc1ccc(C(=O)O)cc1S(=O)(=O)N(Cc1ccccc1)Cc1ccccc1`, > 64.6 µM; under `COc1ccc(CN2CCOCC2)cc1S(=O)(=O)N(Cc1ccc(F)cc1)Cc1ccc(F)cc1`, > 64.6 µM.
Regarding `COc1ccc(OC)c(S(=O)(=O)N(Cc2ccc(F)cc2)c2ccc(F)cc2)c1`, the IC50 in data set [1] was > 64.6 µM.
Same read-out and setting: under `COc1ccc(S(=O)(=O)N(Cc2ccccc2)Cc2ccccc2)cc1` stands > 64.6 µM.
For `COCCOCN1CNc2cc(OC)c(S(=O)(=O)N(Cc3ccccc3)Cc3ccccc3)cc2S1(=O)=O`, the IC50 in data set [1] was > 64.6 µM.
Same read-out and setting: under `COCCN(Cc1ccc(F)cc1)S(=O)(=O)c1cc(C(=O)N2CCOCC2)ccc1OC` stands > 64.6 µM; under `COc1ccc(C(=O)NC2COC2)cc1S(=O)(=O)N(Cc1ccc(F)cc1)Cc1ccc(F)cc1`, > 64.6 µM.
Still for that read-out and setting: under `COc1ccc(S(C)(=O)=O)cc1S(=O)(=O)N(Cc1ccc(F)cc1)Cc1ccc(F)cc1` stands > 64.6 µM.
On to `COc1ccc(C(=O)N2CCOCC2)cc1S(=O)(=O)N(Cc1ccc(F)cc1)Cc1ccc(C(F)(F)F)nc1`, for which the IC50 in data set [1] was > 64.6 µM. The compound further returned a fraction remaining at 6 h in data set [2] of 22%.
Take `COCCN(Cc1ccc(F)cc1)S(=O)(=O)c1cc(C#N)ccc1OC`: the IC50 in data set [1] was > 64.6 µM.
The same measure, in the same setting: in the case of `COc1ccc(C(=O)N2CCOCC2)cc1S(=O)(=O)N(Cc1ccc(F)cc1)CC(C)C` it was > 64.6 µM; in that of `COc1ccc(C(=O)N2CCOCC2)cc1S(=O)(=O)N(Cc1ccc(C(F)(F)F)nc1)CC(C)(C)C`, > 64.6 µM; in that of `COc1ncccc1S(=O)(=O)N(Cc1ccccc1)Cc1ccccc1`, 64.6 µM.
With `COc1ccc(C(=O)N2CCOCC2)cc1S(=O)(=O)N(Cc1ccccc1)Cc1cnc(C(F)(F)F)nc1`, the IC50 in data set [1] is > 64.6 µM. The fraction remaining at 6 h in data set [2] was found to be 42%.
Regarding `COc1ccc(C#N)cc1S(=O)(=O)N(Cc1ccccc1)Cc1cnc(C(F)(F)F)nc1`, the IC50 in data set [1] is > 64.6 µM.
Still for that read-out and setting: under `COc1ccc(C(=O)N2CCOCC2)cc1S(=O)(=O)N(Cc1ccccc1)CC(C)(C)C` stands > 64.6 µM.
The same measure, in the same setting: in the case of `COc1ccc(OC)c(S(=O)(=O)N(Cc2ccc(F)cc2)Cc2cnc(OC)nc2OC)c1` it was > 64.6 µM; in that of `COc1ccc(OC)c(S(=O)(=O)N(Cc2ccccc2)Cc2ccccc2)c1`, > 64.6 µM.
Regarding `COc1ccc(OC)c(S(=O)(=O)N(Cc2ccc(F)cc2)Cc2nc(C)no2)c1`, the IC50 in data set [1] was > 64.6 µM.
Still for that read-out and setting: in the case of `COc1ccc(C(N)=O)cc1S(=O)(=O)N(Cc1ccccc1)Cc1ccccc1` it was > 64.6 µM; in that of `N#Cc1ccccc1S(=O)(=O)N(Cc1ccccc1)Cc1ccccc1`, > 64.6 µM.
Same read-out and setting: under `COc1ccc(C#N)cc1S(=O)(=O)N(Cc1ccc(F)cc1)C1CCOCC1` stands > 64.6 µM; under `COc1ccccc1S(=O)(=O)N(Cc1ccccc1)Cc1ccccc1`, > 64.6 µM; under `COc1ccc([S+](C)[O-])cc1S(=O)(=O)N(Cc1ccccc1)Cc1ccccc1` (stereo not drawn), > 64.6 µM.
Still for that read-out and setting: under `Cn1cccc(S(=O)(=O)N(Cc2ccc(F)cc2)Cc2ccc(F)cc2)c1=O` stands 64.6 µM.
For `COc1ccc(C#N)cc1S(=O)(=O)N(Cc1ccc(C(F)(F)F)nc1)Cc1ccc(C(F)(F)F)nc1`, in data set [1], the IC50 was > 64.6 µM.
In the case of `COc1ccc(N2CCOCC2)cc1S(=O)(=O)N(Cc1ccc(F)cc1)Cc1ccc(F)cc1`, the IC50 in data set [1] is > 64.6 µM.
On the same count and under the same terms, in the case of `O=S(=O)(c1cc(F)ccc1F)N(Cc1ccc(F)cc1)Cc1ccc(F)cc1` it was > 64.6 µM; in that of `COc1ccc(C#N)cc1S(=O)(=O)N(Cc1ccccc1)Cc1ccccc1`, > 64.6 µM.
